Here are results for seven compounds from article PMC9865214 (International Journal of Molecular Sciences, 2023).

Data set [1] in a line: IPI content of L3-L5 spinal segments by mass spectrometry. The class given is in vivo, Wistar rat. To be noted: CART(55-76)-treated inflamed rats; LC-MS/MS; p = 0.032 vs inflamed, p = 0.027 vs naive. The method, then: Three naïve adult male Wistar rats (NG10, NG11, and NG12), 3 rats with unilateral carrageenan-induced hind paw inflammation (GG9, GG10, and GG11), and 3 inflamed rats that received CART(55-76) peptide intrathecally (CG9, CG10, and CG11) were decapitated, and L3–L5 spinal cord segments were removed and snap frozen on dry ice. Tissue was homogenized by sonication in cold acetonitrile (4 °C) in a volume of 10 µL/mg of tissue and centrifuged for 10 min at 14,000 rpm. Supernatant was transferred into Eppendorf tubes and stored at −80 °C until use.
Standard solution of IPI was used for making the calibration curve in the range of 0–50 ng/mL. […] Water containing 0.1% formic acid (eluent A) and acetonitrile containing 0.1% formic acid (eluent B) were used for separation in gradient mode. […] The initial concentration was reached within 0.5 min, and the equilibration time was 5.5 min. The flow rate was 0.5 mL/minute. Column temperature was ambient. The injection volume was 10 µL. […] MRM transitions were identified in product ion scan mode. […] Dwell times were 150 ms for each transition.

The subject of data set [2] is inflammatory hyperalgesia. The conditions noted are these: naltrexone alone; ref [67]; cited from earlier work. The source says: (§1) The opioid-mediated effect is established by an exogenous peptide if an opioid receptor is activated or if an endogenous opioid release is induced.
Data set [3] deals with TLR4 in the TLR4/myeloid differentiation protein-2 heterodimer. The conditions noted are these: ref [68],[69],[70] (NTX, naloxone), [71] (CTAP); cited from earlier work.
Excerpt: as §1

The test system of data set [4] is chronic constriction injury model. To be noted: chronic constriction injury model in rats; ref [75]; cited from earlier work. The source says:
(§2) The similarity of the first two amino acids in the N-terminal region of CART(62-76) to endogenous opioid peptides raises the possibility that this fragment may also bind to […]. Specific binding studies are necessary to answer this question. […] Further studi ...

The subject of data set [5] is chronic pain states. To be noted: low-dose NTX, humans; ref [76]; cited from earlier work.
Excerpt: as §2

The test system of data set [6] is TLR4 activation-induced cytokine expression. To be noted: cited from earlier work. The source says:
The synaptic model of hyperalgesia is the LTP at C-fibre synapses. The induction of hyperalgesia and LTP by inducible mediators including TNFα was discovered and called gliogenic LTP [35]. […] The opioid-mediated effect is established by an exogenous peptide if an opioid receptor is activated or if an endogenous opioid release is induced.

Data set [7] relates to hyperalgesia provoked by carrageenan or partial nerve ligation. To be noted: no ref given; cited from earlier work. The source says:
Further studies are needed to reveal the signalling mechanism to understand this process.

The subject of data set [8] is spinal astrocytes (TNFα secretion). Kind of data set: TNFα secretion of LPS-stimulated spinal astrocyte cultures, ELISA. The class given is cell-based, Wistar rat. The conditions noted are these: 1 μg/mL LPS, control level set to 100%. The method, then:
(§3) For the production of spinal cord astrocyte cultures, we followed the procedure already described by Pap et al. with slight modifications. Briefly, the whole spinal cord was removed from 7–8 day-old Wistar rat pups after decapitation and was placed into ice-cold dissecting buffer (136 mM NaCl, 5.2 mM KCl, 0.64 mM Na2HPO4, 0.22 mM KH2PO4, 16.6 mM glucose, 22 mM sucrose, 10 mM HEPES supplemented with 0.06 U/mL penicillin and 0.06 U/mL streptomycin). The isolated spinal cords were cleaned of the meninges, then were placed into fresh dissecting solution containing 0.025 g/mL bovine trypsin (Merck–Sigma-Aldrich), and were incubated at 37 °C for 30 min. Then, the solution was replaced by Minimum Essential Medium (MEM, Gibco, Life Technologies Ltd., Parsely, UK) supplemented with 10% Fetal Bovine Serum (FBS, Hyclone, GE Healthcare Bio-Sciences, Pittsburgh, PA, USA). […]
ELISA was performed as already described. […] Colour reaction was developed by o-phenylene-diamine, and the optical density was measured at λ = 492 nm by ELISA plate reader (Titertek, Uniscan, Flow Laboratories, Helsinki, Finland).
Optical density data were averaged, and the standard error of mean values was calculated for each treatment. […] Statistically significant differences were calculated by one-way ANOVA followed by Student-Newman-Keuls pairwise comparison. […]
Background: ELISA stands for enzyme-linked immunosorbent assay.

The subject of data set [9] is spinal astrocytes (DPP4 expression). Kind of data set: DPP4 expression of spinal astrocytes, western blot. The class given is cell-based, Wistar rat. The conditions noted are these: 1 μg/mL LPS. How it is done: as §3, with “USA). Finally, cells were suspended by gentle suspension of the tissue pieces by a Pasteur pipette. The cell number was identified, the cell density was set to 1 × 10^6/mL, and the cells were placed into 24 well tissue culture plates (0.5 mL/well).” for “USA).”
Fractions of 50 µg protein/lane cytosol were run on 10% polyacrylamide gels. […] Relative protein levels for DPP4 upon 16 h of LPS treatment were quantified by densitometry in three independent astrocyte cultures and analysed by the Kolmogorov-Smirnov statistical test.
In general terms: Immunoblotting shows a protein as a band on a membrane.

Data set [10] has as its system spinal astrocytes (DPP4, TLR4, caveolin-1). Put plainly: Immunocytochemistry of spinal astrocytes (DPP4, TLR4, caveolin-1). The class given is cell-based, Wistar rat. How it is done:
as §3, with “USA). Finally, cells were suspended by gentle suspension of the tissue pieces by a Pasteur pipette. The cell number was identified, the cell density was set to 1 × 10^6/mL, and the cells were placed into 24 well tissue culture plates (0.5 mL/well). The cell cultures were kept at 37 °C in a 5% CO2 atmosphere, and the medium was replaced the following day and then every second day.” for “USA).”

Counter-ions that a name gives are not always drawn.

On to `CC[C@H](C)[C@H](N)C(=O)N1CCC[C@H]1C(=O)N[C@H](C(=O)O)[C@@H](C)CC` [IPI, isoleucine-proline-isoleucine], for which, in [1], the “IPI concentration of spinal segments, change” value is recorded as “increased significantly”.

Consider `O=C1CC[C@@]2(O)[C@H]3Cc4ccc(O)c5c4[C@@]2(CCN3CC2CC2)[C@H]1O5` [NTX, naltrexone hydrochloride], for which, in data set [2], the “Effect on inflammatory hyperalgesia” value was “no effect on inflammatory hyperalgesia”. Also, the TLR4 antagonism result in data set [3] was “TLR4 antagonists”. For the same compound, the Antiallodynic effect entry in [4] is listed as “antiallodynic effect”. The “Effect in chronic pain states” value in [5] was “effective in a variety of chronic pain states in humans”. Also, the “Effect on TLR4 agonist-induced cytokine production” value in data set [6] (ref [72]) is reported as “did not block the TLR4 agonist-induced cytokine production”.

Consider `Cn1c(=O)cc(N2CCC[C@@H](N)C2)n(Cc2ccccc2C#N)c1=O` [algogliptin], for which the “Effect on TLR4 activation-induced cytokine expression” value in data set [6] (IL-6, IL-1β and other cytokines, ref [57]) was “decreased the TLR4 activation-induced IL-6, IL-1β, and other cytokine expression”.

As to `C=CCN1CC[C@]23c4c5ccc(O)c4O[C@H]2C(=O)CC[C@@]3(O)[C@H]1C5` [naloxone], in [3], the TLR4 antagonism result is recorded as “TLR4 antagonists”.

Turning to `N#C[C@@H]1CCCN1C(=O)CNC12CC3CC(CC(O)(C3)C1)C2` [vildagliptin], the “Antihyperalgesic effect in neuropathic condition” value in [7] is listed as “antihyperalgesic effects in a neuropathic condition”.

For “D-Phe-Cys-Tyr-D-Trp-Arg-Thr-Pen-Thr-NH2 [CTAP]”, the TLR4 antagonism result in data set [3] is “TLR4 antagonists”.

In the case of lipopolysaccharide [LPS], the “Relative TNFα secretion with LPS” value in [8] turned out to be 368 ± 9%. Besides, in data set [9] (16 h (control 0.62 ± 0.084), densitometry), the “DPP4 optical density value” was determined as 1.08 ± 0.059. For the same compound, the “DPP4 expression level increase” value in data set [9] (16 h, vs control cultures, three independent cultures, ± SEM) came out at 74.3 ± 9.6%. Also, in [10] (1 μg/mL LPS, 6 h), the DPP4 staining intensity entry is “considerably increased”. Besides, in [10] (LPS-stimulated cultures, 1 μg/mL), the “TLR4 and caveolin-1 subcellular localization” value is listed as “both proteins were trafficked toward the cell surface”.
